Measurements reported in patent publication US10138225B2 (Achillion Pharmaceuticals, Inc., priority 2015, dated 2018).

target: T1, Human Factor D (Homo sapiens, UniProt P00746); assay: Human Factor D Assay; assay type: biochemical; details: Table 1; Factor D 80 nM, substrate Z-L-Lys-SBzl; read-out: IC50
T1 construct: purified from human serum; purchased Complement Technology, Inc; host or cells: human serum (natural protein, not recombinant)
Description: Human Factor D (purified from human serum, Complement Technology, Inc.) at 80 nM final concentration is incubated with test compound at various concentrations for 5 minutes at room temperature in 50 mM Tris, 1M NaCl, pH 7.5. A synthetic substrate Z-L-Lys-SBzl and DTNB (Ellman's reagent) are added to final concentrations of 100 μM each. Absorbance at 405 nm (A405) is recorded at 30 second intervals for 30 minutes using a microplate spectrophotometer. IC50 values are calculated by nonlinear regression of complement Factor D reaction rates as a function of test compound concentration.

T1 sequence (P00746 26-253): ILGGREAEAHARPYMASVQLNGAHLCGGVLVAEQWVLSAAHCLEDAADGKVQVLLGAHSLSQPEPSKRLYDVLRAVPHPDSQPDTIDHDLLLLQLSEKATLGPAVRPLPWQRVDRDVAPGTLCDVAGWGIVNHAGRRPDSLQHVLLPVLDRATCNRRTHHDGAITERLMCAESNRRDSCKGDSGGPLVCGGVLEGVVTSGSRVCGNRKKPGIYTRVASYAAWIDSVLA

SMILES	IC50 [nM]
NC(=O)c1nn(CC(=O)N2C[C@H](F)C[C@H]2C(=O)Nc2cccc(-c3ccccc3Cl)c2F)c2ccc(NC(=O)N3CCCC(F)(F)C3)cc12 [Compound 24, 1-(2-((2S,4R)-2-(2′-chloro-2-fluorobiphenyl-3-ylcarbamoyl)-4-fluoropyrrolidin-1-yl)-2-oxoethyl)-5-(3,3-difluoropiperidine-1-carboxamido)-1H-indazole-3-carboxamide]	< 1000
CC(=O)c1cn(CC(=O)N2C[C@H](F)C[C@H]2C(=O)NCc2cccc(Cl)c2F)c2ccc(NC(=O)N3CCC(F)(F)C3)cc12 [Compound 13, N-(3-acetyl-1-(2-((2S,4R)-2-(3-chloro-2-fluorobenzylcarbamoyl)-4-fluoropyrrolidin-1-yl)-2-oxoethyl)-1H-indol-5-yl)-3,3-difluoropyrrolidine-1-carboxamide]	< 1000
CC(=O)c1cn(CC(=O)N2C[C@H](F)C[C@H]2C(=O)NCc2cccc(Cl)c2F)c2ccc(NC(=O)NC(C)C)cc12 [Compound 6, (2S,4R)-1-(2-(3-acetyl-5-(3-isopropylureido)-1H-indol-1-yl)acetyl)-N-(3-chloro-2-fluorobenzyl)-4-fluoropyrrolidine-2-carboxamide]	< 1000
NC(=O)c1nn(CC(=O)N2[C@@H]3C[C@@H]3C[C@H]2C(=O)Nc2cccc(Br)n2)c2ccc(NC(=O)N3CCCC(F)(F)C3)cc12 [Compound 34, 1-(2-((1R,3S,5R)-3-(6-bromopyridin-2-ylcarbamoyl)-2-azabicylco[3.1.0]hexan-2-yl)-2-oxoethyl)-5-(3,3-difluoropiperidine-1-carboxamido)-1H-indazole-3-carboxamide]	< 1000
CC(=O)c1cn(CC(=O)N2C[C@H](F)C[C@H]2C(=O)NCc2cccc(Cl)c2F)c2ccc(NC(=O)N3CCCC3)cc12 [Compound 9, N-(3-acetyl-1-(2-((2S,4R)-2-(3-chloro-2-fluorobenzylcarbamoyl)-4-fluloropyrrolidin-1-yl)-2-oxoethyl)-1H-indol-5-yl)pyrrolidine-1-carboxamide]	< 1000
CC(=O)c1cn(CC(=O)N2C[C@H](F)C[C@H]2C(=O)NCc2cccc(Cl)c2F)c2ccc(NC(=O)OC3CC3)cc12 [Compound 14, cyclopropyl 3-acetyl-1-(2-((2S,4R)-2-(3-chloro-2-fluorobenzylcarbamoyl)-4-fluoropyrrolidin-1-yl)-2-oxoethyl)-1H-indol-5-ylcarbamate]	< 1000
CC(=O)c1cn(CC(=O)N2C[C@H](F)C[C@H]2C(=O)NCc2cccc(Cl)c2F)c2cc(C(=O)N[C@H]3CCN(C(=O)OC(C)(C)C)C3)ccc12 [Compound 44, (S)-tert-butyl 3-(3-acetyl-1-(2-((2S,4R)-2-(3-chloro-2-fluorobenzyl-carbamoyl)-4-fluoropyrrolidin-1-yl)-2-oxoethyl)-1H-indole-6-carboxamido) pyrrolidine-1-carboxylate]	< 1000
COC(=O)C1CCN(C(=O)c2ccc3c(C(C)=O)cn(CC(=O)N4C[C@H](F)C[C@H]4C(=O)NCc4cccc(Cl)c4F)c3c2)C1 (stereo partly drawn) [Compound 51, methyl 1-(3-acetyl-1-(2-((2S,4R)-2-(3-chloro-2-fluorobenzylcarbamoyl)-4-fluoropyrrolidin-1-yl)-2-oxoethyl)-1H-indole-6-carbonyl)pyrrolidine-3-carboxylate]	< 1000
CC(=O)c1cn(CC(=O)N2C[C@H](F)C[C@H]2C(=O)NCc2cccc(Cl)c2F)c2cc(NC(=O)OC(C)(C)C)ccc12 [Compound 37, tert-butyl 3-acetyl-1-(2-((2S,4R)-2-(3-chloro-2-fluorobenzylcarbamoyl)-4-fluoropyrrolidin-1-yl)-2-oxoethyl)-1H-indol-6-ylcarbamate]	< 1000
CC(=O)c1cn(CC(=O)N2C[C@H](F)C[C@H]2C(=O)NCc2cccc(Cl)c2F)c2cc(C(=O)NCC3CCN(C(=O)OC(C)(C)C)C3)ccc12 (stereo partly drawn) [Compound 50, tert-butyl 3-((3-acetyl-1-(2-((2S,4R)-2-(3-chloro-2-fluorobenzylcarbamoyl)-4-fluoropyrrolidin-1-yl)-2-oxoethyl)-1H-indole-6-carboxamido)methyl) pyrrolidine-1-carboxylate]	< 1000
NC(=O)c1nn(CC(=O)N2C[C@H](F)C[C@H]2C(=O)Nc2cccc(-c3ccccc3Cl)c2F)c2cc(C(=O)NS(=O)(=O)C3CC3)ccc12 [Compound 54]	< 1000
CC(=O)c1cn(CC(=O)N2C[C@H](F)C[C@H]2C(=O)NCc2cccc(Cl)c2F)c2cc(C(=O)N[C@H]3CCN(C(C)=O)C3)ccc12 [Compound 46, 3-acetyl-N-((S)-1-acetylpyrrolidin-3-yl)-1-(2-((2S,4R)-2-(3-chloro-2-fluorobenzylcarbamoyl)-4-fluoropyrrolidin-1-yl)-2-oxoethyl)-1H-indole-6-carboxamide]	< 1000
CC(=O)c1cn(CC(=O)N2C[C@H](F)C[C@H]2C(=O)NCc2cccc(Cl)c2F)c2ccc(C(=O)N3CC4CCC3C4)cc12 (stereo partly drawn) [Compound 39, (2S,4R)-1-(2-(3-acetyl-5-(2-azabicyclo[2.2.1]heptane-2-carbonyl)-1H-indol-1-yl)acetyl)-N-(3-chloro-2-fluorobenzyl)-4-fluoropyrrolidine-2-carboxamide]	< 1000
NC(=O)c1nn(CC(=O)N2C[C@H](F)C[C@H]2C(=O)Nc2cccc(-c3ncccc3Cl)c2F)c2ccc(NC(=O)N3CCCC(F)(F)C3)cc12 [Compound 29, 1-(2-((2S,4R)-2-(3-(3-chloropyridin-2-yl)-2-fluorophenylcarbamoyl)-4-fluoropyrrolidin-1-yl)-2-oxoethyl)-5-(3,3-difluoropiperidine-1-carboxamido)-1H-indazole-3-carboxamide]	< 1000
NC(=O)c1nn(CC(=O)N2C[C@H](F)C[C@H]2C(=O)Nc2cccc(-c3ccccc3Cl)c2F)c2ccc(NC(=O)N3CCC(F)(F)CC3)cc12 [Compound 31, 1-(2-((2S,4R)-2-(2′-chloro-2-fluorobiphenyl-3-ylcarbamoyl)-4-fluoropyrrolidin-1-yl)-2-oxoethyl)-5-(4,4-difluoropiperidine-1-carboxamido)-1H-indazole-3-carboxamide]	< 1000
CC(=O)c1cn(CC(=O)N2C[C@H](F)C[C@H]2C(=O)NCc2cccc(Cl)c2F)c2cc(C(=O)N3CCC(C(=O)O)C3)ccc12 (stereo partly drawn) [Compound 52, 1-(3-acetyl-1-(2-((2S,4R)-2-(3-chloro-2-fluorobenzylcarbamoyl)-4-fluoropyrrolidin-1-yl)-2-oxoethyl)-1H-indole-6-carbonyl)pyrrolidine-3-carboxylic acid]	< 1000
CC(=O)c1cn(CC(=O)N2C[C@H](F)C[C@H]2C(=O)Nc2cccc(OC(F)(F)F)c2F)c2ccc(NC(=O)NC3CC3)cc12 [Compound 10, (2S,4R)-1-(2-(3-acetyl-5-(3-cyclopropylureido)-1H-indol-1-yl)acetyl)-4-fluoro-N-(2-fluoro-3-(trifluoromethoxy)phenyl)pyrrolidine-2-carboxamide]	< 1000
CC(=O)c1cn(CC(=O)N2C[C@H](F)C[C@H]2C(=O)NCc2cccc(Cl)c2F)c2cc(C(=O)NCC3CCNC3)ccc12 (stereo partly drawn) [Compound 49, 3-acetyl-1-(2-((2S,4R)-2-(3-chloro-2-fluorobenzylcarbamoyl)-4-fluoropyrrolildin-1-yl)-2-oxoethyl)-N-(pyrrolidin-3-ylmethyl)-1H-indole-6-carboxamide]	< 1000
CC(=O)c1cn(CC(=O)N2C[C@H](F)C[C@H]2C(=O)Nc2cccc(C(F)(F)F)n2)c2ccc(NC(=O)N3CCCC(F)(F)C3)cc12 [Compound 20, N-(3-acetyl-1-(2-((2S,4R)-4-fluoro-2-(6-(trifluoromethyl)pyridin-2-ylcarbamoyl)pyrrolidin-1-yl)-2-oxoethyl)-1H-indol-5-yl)-3,3-difluoropiperidine-1-carboxamide]	< 1000

same assay, conditions: Table 2; Factor D 80 nM, substrate Z-L-Lys-SBzl; read-out: IC50

IC50 [nM]	SMILES
< 1000	NC(=O)c1nn(CC(=O)N2C[C@H](F)C[C@H]2C(=O)Nc2cccc(-c3ccccc3Cl)c2F)c2cc(C(=O)NC3CCCC3)sc12 [Compound 61, 1-(2-((2S,4R)-2-(2′-chloro-2-fluorobiphenyl-3-ylcarbamoyl)-4-fluoropyrrolidin-1-yl)-2-oxoethyl)-N5-cyclopentyl-1H-thieno[3,2-c]pyrazole-3,5-dicarboxamide]

same assay, conditions: Table 3; factor D inhibition assay; read-out: IC50 (Stars)

IC50 [nM]	SMILES
< 1000	CC(=O)c1cn(CC(=O)N2C[C@H](F)C[C@H]2C(=O)NCc2ccccc2)c2ccc(NC(=O)N3CCCC(F)(F)C3)cc12 [Compound 196, N-(3-acetyl-1-(2-((2S,4R)-2-(benzocarbamoyl)-4-fluoropyrrolidin-1-yl)-2-oxoethyl)-1H-indol-5-yl)-3,3-difluoropiperidine-1-carboxamide]
1000 to 10000	CC(=O)c1cn(CC(=O)N2C[C@H](F)C[C@H]2C(=O)NCc2ccccc2)c2ccc(C(=O)NS(=O)(=O)C3CC3)cc12 [Compound 180, 3-acetyl-1-(2-((2S,4R)-2-(benzylcarbamoyl)-4-fluoropyrrolidin-1-yl)-2-oxoethyl)-N-(cyclopropylsulfonyl)-1H-indole-5-carboxamide]
> 10000	CC(=O)c1cn(CC(=O)N2CC[C@H]2C(=O)Nc2cccc(C)n2)c2ccc(NC(=O)N3CCCC(F)(F)C3)cc12 [Compound 205, (S)-N-(3-acetyl-1-(2-(2-((6-methylpyridin-2-yl)-carbamoyl)-azetidin-1-yl)-2-oxoethyl)-1H-indol-5-yl)-3,3-difluoropiperidine-1-carboxamide]
> 10000	CC(=O)c1cn(CC(=O)N2C[C@H](F)C[C@H]2C(=O)NCCCCc2ccccc2)c2ccc(C(=O)NS(=O)(=O)C3CC3)cc12 [Compound 195, 3-acetyl-N-(cyclopropylsulfonyl)-1-(2-((2S,4R)-4-fluoro-2-((4-phenylbutyl)carbamoyl)pyrrolidin-1-yl)-2-oxoethyl)-1H-indole-5-carboxamide]
